Here are results for 31 molecules from US20120129833A1, “CYCLIC KETOENOLS FOR THERAPY” (BAYER PHARMA AKTIENGESELLSCHAFT, priority 2010, published 2012).

Structures are written as SMILES.

For assay [1], the target named is T1, ACC2 (acetyl-CoA carboxylase 2) (Homo sapiens, UniProt O00763).
T1 construct: catalogue no; 50201, amino acids 39—end, expressed in baculovirus-transfected Sf9 insect cells; His (C); purchased BPS Bioscience (San Diego, Calif.) 50201; host or cells: baculovirus-transfected Sf9 insect cells
T1 sequence (O00763 39-2458 limits assumed): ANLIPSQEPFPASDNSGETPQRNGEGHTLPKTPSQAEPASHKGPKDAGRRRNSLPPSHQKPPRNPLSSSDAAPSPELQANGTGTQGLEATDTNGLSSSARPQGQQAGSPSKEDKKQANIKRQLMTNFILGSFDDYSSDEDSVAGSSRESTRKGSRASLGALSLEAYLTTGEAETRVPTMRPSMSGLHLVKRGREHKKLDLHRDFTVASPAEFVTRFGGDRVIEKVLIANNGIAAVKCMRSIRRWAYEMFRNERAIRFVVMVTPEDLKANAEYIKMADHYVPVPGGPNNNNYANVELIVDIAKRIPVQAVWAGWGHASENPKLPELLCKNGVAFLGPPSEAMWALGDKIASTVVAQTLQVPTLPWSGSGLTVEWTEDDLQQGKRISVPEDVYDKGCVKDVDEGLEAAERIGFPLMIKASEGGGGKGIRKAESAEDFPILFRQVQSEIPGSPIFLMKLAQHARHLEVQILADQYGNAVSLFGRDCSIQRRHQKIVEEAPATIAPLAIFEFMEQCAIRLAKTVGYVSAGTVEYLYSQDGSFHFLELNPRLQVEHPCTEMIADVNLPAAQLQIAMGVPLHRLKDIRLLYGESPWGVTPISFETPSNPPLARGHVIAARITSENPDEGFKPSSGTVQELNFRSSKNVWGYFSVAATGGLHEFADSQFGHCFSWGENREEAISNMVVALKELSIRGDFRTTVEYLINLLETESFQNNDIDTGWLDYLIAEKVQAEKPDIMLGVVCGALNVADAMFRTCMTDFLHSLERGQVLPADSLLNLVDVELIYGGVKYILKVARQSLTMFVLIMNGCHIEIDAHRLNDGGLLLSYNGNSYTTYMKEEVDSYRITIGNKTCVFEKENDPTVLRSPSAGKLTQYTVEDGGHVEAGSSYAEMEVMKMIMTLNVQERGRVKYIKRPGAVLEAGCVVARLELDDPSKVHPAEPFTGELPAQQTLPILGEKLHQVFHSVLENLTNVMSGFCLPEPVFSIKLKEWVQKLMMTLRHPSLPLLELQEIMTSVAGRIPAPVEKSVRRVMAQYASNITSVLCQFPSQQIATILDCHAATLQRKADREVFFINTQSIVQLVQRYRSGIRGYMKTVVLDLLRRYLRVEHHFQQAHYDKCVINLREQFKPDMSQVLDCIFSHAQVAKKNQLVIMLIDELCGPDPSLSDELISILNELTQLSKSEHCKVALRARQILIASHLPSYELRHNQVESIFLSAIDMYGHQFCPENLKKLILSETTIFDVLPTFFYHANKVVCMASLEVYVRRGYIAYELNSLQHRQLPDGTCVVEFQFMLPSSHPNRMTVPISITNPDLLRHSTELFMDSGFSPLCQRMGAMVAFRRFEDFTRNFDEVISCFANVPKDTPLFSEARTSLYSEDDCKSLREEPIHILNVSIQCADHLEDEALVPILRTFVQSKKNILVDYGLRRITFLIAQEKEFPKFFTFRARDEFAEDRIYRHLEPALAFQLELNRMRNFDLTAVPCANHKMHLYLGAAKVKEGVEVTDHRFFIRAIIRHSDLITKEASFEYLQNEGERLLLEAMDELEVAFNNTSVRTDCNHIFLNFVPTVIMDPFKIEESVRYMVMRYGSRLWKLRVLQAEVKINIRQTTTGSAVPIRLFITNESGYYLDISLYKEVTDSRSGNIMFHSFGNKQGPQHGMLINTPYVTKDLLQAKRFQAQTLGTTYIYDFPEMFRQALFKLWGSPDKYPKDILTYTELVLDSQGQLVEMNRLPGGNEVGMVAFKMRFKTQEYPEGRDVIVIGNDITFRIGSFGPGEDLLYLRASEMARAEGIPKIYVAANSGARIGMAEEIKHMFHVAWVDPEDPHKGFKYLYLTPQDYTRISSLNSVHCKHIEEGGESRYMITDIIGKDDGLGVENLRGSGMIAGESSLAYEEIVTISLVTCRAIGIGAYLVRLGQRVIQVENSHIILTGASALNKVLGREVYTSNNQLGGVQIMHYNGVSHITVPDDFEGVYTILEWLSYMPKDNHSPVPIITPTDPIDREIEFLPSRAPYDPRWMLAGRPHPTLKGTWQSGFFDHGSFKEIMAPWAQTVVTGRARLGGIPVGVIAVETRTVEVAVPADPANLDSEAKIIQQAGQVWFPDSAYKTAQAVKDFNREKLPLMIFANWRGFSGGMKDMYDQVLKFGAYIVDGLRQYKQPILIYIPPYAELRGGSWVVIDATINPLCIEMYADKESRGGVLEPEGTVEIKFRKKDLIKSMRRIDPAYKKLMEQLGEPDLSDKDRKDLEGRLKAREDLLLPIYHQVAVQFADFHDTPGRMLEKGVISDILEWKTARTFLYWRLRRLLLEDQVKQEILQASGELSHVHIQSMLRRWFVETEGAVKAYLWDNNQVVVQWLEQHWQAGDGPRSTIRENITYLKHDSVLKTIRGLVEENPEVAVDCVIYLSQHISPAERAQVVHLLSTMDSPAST
In words: Human ACC2 enzyme assay (HTRF ADP detection). The format is biochemical. As to conditions: 20 μM acetyl-CoA, 15 min pre-incubation, 20 min at 22° C.; read-out: ACC 2 IC50. Background: In TR-FRET formats the signal depends on donor and acceptor labels being close together.

The target in assay [2] is T2, recombinant human ACC1 (acetyl-CoA carboxylase 1) (Homo sapiens, UniProt Q13085).
T2 construct: NM_198834, amino acids 39—end; FLAG (C); made in house; host or cells: baculovirus-transfected insect cells (Hi5)
As to the kind of experiment: Human ACC1 enzyme assay (HTRF ADP detection).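 Note: ADP by-product quantified by competitive HTRF immunoassay with europium cryptate anti-ADP antibody and d2-labelled ADP, read after 1 h binding at 22 °C, enzyme near 2.5 ng/µl.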 The format is biochemical. As to conditions: 50 μM ATP, 20 μM acetyl-CoA, 15 min pre-incubation, 20 min at 22° C.; read-out: ACC 1 IC50.
Description: The basic principle of the assay is the measurement of adenosine diphosphate (ADP), which is formed as a by-product, by means of an HTRF®-based competitive immunoassay (HTRF=Homogeneous Time Resolved Fluorescence).
The amount of complex of d2-labelled ADP and europium cryptate-labelled anti-ADP antibody was then determined by measuring the resonance energy transfer of europium cryptate to d2.

What is called IC50 is the concentration that gives 50% inhibition. In the case of `COC1CCCC2(C1)OC(=O)C(c1cc(-c3ccc(Cl)cc3)ccc1Cl)=C2O` (centres unmarked) [Example 2-13, 3-(4,4′-dichlorobiphenyl-3-yl)-4-hydroxy-7-methoxy-1-oxaspiro[4.5]dec-3-en-2-one], the half-inhibitory concentration (IC50) in assay [1] is greater than 20000 nM; in assay [2], 816 nM.
For `COC1CCCC2(C1)OC(=O)C(c1cc(-c3ccc(Cl)cc3)ccc1C)=C2O` (centres unmarked) [Example 2-14, 3-(4′-chloro-4-methylbiphenyl-3-yl)-4-hydroxy-7-methoxy-1-oxaspiro[4.5]dec-3-en-2-one], in that order: 19400 nM and 562 nM.
In the case of `Cc1ccc(-c2ccc(Cl)cc2)cc1C1=C(O)C2(CCC3(CC2)OCCO3)OC1=O` [Example 2-15, 11-(4′-chloro-4-methylbiphenyl-3-yl)-12-hydroxy-1,4,9-trioxadispiro[4.2.4.2]tetradec-11-en-10-one], the IC50 in assay [1] is 3680 nM; in assay [2], 204 nM.
With `COCC1CCC2(CC1)OC(=O)C(c1cc(-c3ccc(Cl)cc3)ccc1Cl)=C2O` (centres unmarked) [Example 2-16, 3-(4,4′-dichlorobiphenyl-3-yl)-4-hydroxy-8-(methoxymethyl)-1-oxaspiro[4.5]dec-3-en-2-one], the half-inhibitory concentration (IC50) in assay [1] was 3340 nM; in assay [2], 180 nM.
For `COCC1CCC2(CC1)OC(=O)C(c1c(C)ccc(-c3ccc(Cl)cc3)c1C)=C2O` (centres unmarked) [Example 2-17, 3-(4′-chloro-2,4-dimethylbiphenyl-3-yl)-4-hydroxy-8-(methoxymethyl)-1-oxaspiro[4.5]dec-3-en-2-one], in that order: 652 nM and 158 nM.
For `COCCC1CCCC2(C1)OC(=O)C(c1cc(-c3ccc(Cl)cc3)ccc1C)=C2O` (centres unmarked) [Example 2-18, 3-(4′-chloro-4-methylbiphenyl-3-yl)-4-hydroxy-7-(2-methoxyethyl)-1-oxaspiro[4.5]dec-3-en-2-one], in that order: 3410 nM and 479 nM.
The corresponding values for `COCCC1CCCC2(C1)OC(=O)C(c1cc(-c3ccc(Cl)cc3)ccc1Cl)=C2O` (centres unmarked) [Example 2-19, 3-(4,4′-dichlorobiphenyl-3-yl)-4-hydroxy-7-(2-methoxyethyl)-1-oxaspiro[4.5]dec-3-en-2-one] are 10000 nM and 530 nM.
For `COCC1CCC2(CC1)OC(=O)C(c1cc(-c3ccc(Cl)cc3)ccc1C)=C2O` (centres unmarked) [Example 2-20, 3-(4′-chloro-4-methylbiphenyl-3-yl)-4-hydroxy-8-(methoxymethyl)-1-oxaspiro[4.5]dec-3-en-2-one], the results for the IC50 in assay [1] and in assay [2] were 1930 nM and 137 nM, respectively.
For `Cc1ccc(-c2ccc(F)cc2)cc1C1=C(O)C2(CCCCC2)OC1=O` [Example 2-21, 3-(4′-fluoro-4-methylbiphenyl-3-yl)-4-hydroxy-1-oxaspiro[4.5]dec-3-en-2-one], in that order: greater than 20000 nM and 400 nM.
The corresponding values for `Cc1ccc(-c2ccc(F)c(F)c2)cc1C1=C(O)C2(CCCC2)OC1=O` [Example 2-22, 3-(3′,4′-difluoro-4-methylbiphenyl-3-yl)-4-hydroxy-1-oxaspiro[4.4]non-3-en-2-one] are greater than 20000 nM and 824 nM.
On to `Cc1ccc(-c2ccc(F)c(Cl)c2)cc1C1=C(O)C2(CCCC2)OC1=O` [Example 2-23, 3-(3′-chloro-4′-fluoro-4-methylbiphenyl-3-yl)-4-hydroxy-1-oxaspiro[4.4]non-3-en-2-one], for which the results for the 50% inhibitory concentration (IC50) in assay [1] and in assay [2] were greater than 20000 nM and 1370 nM, respectively.
For `O=C1OC2(CCCC2)C(O)=C1c1cc(-c2cc(F)c(F)c(F)c2)ccc1Cl` [Example 2-24, 3-(4-chloro-3′,4′,5′-trifluorobiphenyl-3-yl)-4-hydroxy-1-oxaspiro[4.4]non-3-en-2-one], in that order: greater than 20000 nM and 997 nM.
For `O=C1OC2(CCCCC2)C(O)=C1c1cc(-c2ccc(F)c(F)c2)ccc1Cl` [Example 2-25, 3-(4-chloro-3′,4′-difluorobiphenyl-3-yl)-4-hydroxy-1-oxaspiro[4.5]dec-3-en-2-one], the IC50 was greater than 20000 nM in assay [1] and 442 nM in assay [2].
With `Cc1ccc(-c2ccc(Cl)cc2)c(C)c1C1=C(O)[C@]2(CC[C@]3(CCCO3)CC2)OC1=O` [Example 2-26, (5s,8r)-3-(4′-chloro-2,4-dimethylbiphenyl-3-yl)-4-hydroxy-1,9-dioxadispiro[4.2.4.2]tetradec-3-en-2-one], the IC50 in assay [1] came out at 4800 nM; in assay [2] it was 260 nM.
Regarding `O=C1OC2(CCC3(CCCO3)CC2)C(O)=C1c1cc(-c2ccc(Cl)cc2)ccc1Cl` (centres unmarked) [Example 2-27, 3-(4,4′-dichlorobiphenyl-3-yl)-4-hydroxy-1,9-dioxadispiro[4.2.4.2]tetradec-3-en-2-one], the half-maximal inhibitory concentration (IC50) amounted to 4150 nM in assay [1] and 822 nM in assay [2].
The corresponding values for `Cc1ccc(-c2ccc(F)cc2)cc1C1=C(O)[C@]2(CC[C@@]3(CCCO3)CC2)OC1=O` [Example 2-28, (5r,8s)-3-(4′-fluoro-4-methylbiphenyl-3-yl)-4-hydroxy-1,9-dioxadispiro[4.2.4.2]tetradec-3-en-2-one] are 2500 nM and 140 nM.
For the molecule `Cc1ccc(-c2ccc(Cl)cc2)cc1C1=C(O)C2(CCC3(CCCO3)CC2)OC1=O` (centres unmarked) [Example 2-29, 3-(4′-chloro-4-methylbiphenyl-3-yl)-4-hydroxy-1,9-dioxadispiro[4.2.4.2]tetradec-3-en-2-one], the values for the IC50 in assay [1] and in assay [2] were 789 nM and 321 nM, respectively.
Turning to `Cc1cc(C)c(-c2ccc(Cl)cc2)cc1C1=C(O)[C@]2(CC[C@@]3(CCCO3)CC2)OC1=O` [Example 2-30, (5r,8s)-3-(4′-chloro-4,6-dimethylbiphenyl-3-yl)-4-hydroxy-1,9-dioxadispiro[4.2.4.2]tetradec-3-en-2-one], the results for the IC50 in assay [1] and in assay [2] were 32 nM and 281 nM, respectively.
Regarding `Cc1cc(C)c(-c2ccc(Cl)cc2)c(C)c1C1=C(O)[C@]2(CC[C@@]3(CCCO3)CC2)OC1=O` [Example 2-31, (5r,8s)-3-(4′-chloro-2,4,6-trimethylbiphenyl-3-yl)-4-hydroxy-1,9-dioxadispiro[4.2.4.2]tetradec-3-en-2-one], the results for the IC50 in assay [1] and in assay [2] were 48 nM and 880 nM, respectively.
With `Cc1ccc(-c2ccc(Cl)cc2)c(C)c1C1=C(O)C2(CCC(OCC(F)(F)F)CC2)OC1=O` (centres unmarked) [Example 2-32, 3-(4′-chloro-2,4-dimethylbiphenyl-3-yl)-4-hydroxy-8-(2,2,2-trifluoroethoxy)-1-oxaspiro[4.5]dec-3-en-2-one], the IC50 worked out at 1600 nM in assay [1] and 450 nM in assay [2].
`Cc1ccc(-c2ccc(Cl)cc2)cc1C1=C(O)C2(CCC(OCC(F)(F)F)CC2)OC1=O` (centres unmarked) [Example 2-33, 3-(4′-chloro-4-methylbiphenyl-3-yl)-4-hydroxy-8-(2,2,2-trifluoroethoxy)-1-oxaspiro[4.5]dec-3-en-2-one]: the results for the IC50 in assay [1] and in assay [2] were 3590 nM and 229 nM, respectively.
Regarding `COC1CCC2(CC1)OC(=O)C(c1c(C)ccc(-c3ccc(Cl)cc3)c1C)=C2O` (centres unmarked) [Example 2-34, 3-(4′-chloro-2,4-dimethylbiphenyl-3-yl)-4-hydroxy-8-methoxy-1-oxaspiro[4.5]dec-3-en-2-one], the results for the IC50 in assay [1] and in assay [2] were 1270 nM and 286 nM, respectively.
As for `Cc1ccc(-c2ccc(Cl)cc2)cc1C1=C(O)C(C(C)(C)C)OC1=O` (centres unmarked) [Example 2-35, 5-tert-butyl-3-(4′-chloro-4-methylbiphenyl-3-yl)-4-hydroxyfuran-2(5H)-one], the IC50 was greater than 20000 nM in assay [1] and 1020 nM in assay [2].
The corresponding values for `Cc1ccc(-c2ccc(Cl)cc2)cc1C1=C(O)C2(CCOCC2)OC1=O` [Example 2-37, 3-(4′-chloro-4-methylbiphenyl-3-yl)-4-hydroxy-1,8-dioxaspiro[4.5]dec-3-en-2-one] are greater than 20000 nM and 342 nM.
For `Cc1ccc(-c2ccc(Cl)cc2)cc1C1=C(O)C2(CCCCCC2)OC1=O` [Example 2-38, 3-(4′-chloro-4-methylbiphenyl-3-yl)-4-hydroxy-1-oxaspiro[4.6]undec-3-en-2-one], in that order: 3780 nM and 416 nM.
The corresponding values for `COC1CCC2(CC1)OC(=O)C(c1cc(-c3ccc(Cl)cc3)ccc1C)=C2O` (centres unmarked) [Example 2-39, 3-(4′-chloro-4-methylbiphenyl-3-yl)-4-hydroxy-8-methoxy-1-oxaspiro[4.5]dec-3-en-2-one] are 3530 nM and 216 nM.
As to `Cc1ccc(-c2ccc(Cl)cc2)cc1C1=C(O)C(C)(C2CCCCC2)OC1=O` (centres unmarked) [Example 2-40, 3-(4′-chloro-4-methylbiphenyl-3-yl)-5-cyclohexyl-4-hydroxy-5-methylfuran-2(5H)-one], the figures for the IC50 in assay [1] and in assay [2] were greater than 20000 nM and 1220 nM, respectively.
The corresponding values for `Cc1cc(C)c(-c2ccc(Cl)cc2)cc1C1=C(O)C2(CCOCC2)OC1=O` [Example 2-41, 3-(4′-chloro-4,6-dimethylbiphenyl-3-yl)-4-hydroxy-1,8-dioxaspiro[4.5]dec-3-en-2-one] are 4220 nM and 791 nM.
The corresponding values for `Cc1cc(C)c(-c2ccc(Cl)cc2)cc1C1=C(O)C2(CCSCC2)OC1=O` [Example 2-42, 3-(4′-chloro-4,6-dimethylbiphenyl-3-yl)-4-hydroxy-1-oxa-8-thiaspiro[4.5]dec-3-en-2-one] are 1020 nM and 357 nM.
Regarding `Cc1cc(C)c(-c2ccc(Cl)cc2)cc1C1=C(O)C2(CCCCCC2)OC1=O` [Example 2-43, 3-(4′-chloro-4,6-dimethylbiphenyl-3-yl)-4-hydroxy-1-oxaspiro[4.6]undec-3-en-2-one], the values for the IC50 in assay [1] and in assay [2] were 330 nM and 504 nM, respectively.
Regarding `COC1CCC2(CC1)OC(=O)C(c1cc(-c3ccc(Cl)cc3)c(C)cc1C)=C2O` (centres unmarked) [Example 2-44, 3-(4′-chloro-4,6-dimethylbiphenyl-3-yl)-4-hydroxy-8-methoxy-1-oxaspiro[4.5]dec-3-en-2-one], the IC50 in assay [1] amounted to 160 nM; in assay [2] it was 297 nM.
